Source: US9708336B2, “Metallo-beta-lactamase inhibitors” (priority 2014, dated 2017)
Like-named read-outs stand apart in the source and are kept apart here.

What was measured:
NDM-1 = NDM-1 (Klebsiella pneumoniae, UniProt C7C422); test: biochemical; assay type: biochemical; conditions: read-out: NDM-1 IC50
IMP-1 = IMP-1 (Serratia marcescens, UniProt P52699); test: biochemical; assay type: biochemical; conditions: read-out: IMP-1 IC50
[1] = tested on: Serratia marcescens expressing IMP-1 (CL5741); test: Antibiotic potentiation activity: synergistic concentration (MITC95) with imipenem, OD600 growth; assay type: cell-based; conditions: for Serratia marcescens expressing IMP-1 (CL5741) MITC95: concentration giving 95% inhibition of bacterial growth; for Serratia marcescens MITC95: 95% growth inhibition
Protocol: (§1) Antibiotic Potentiation Activity: Determination of Synergistic Concentration
(§2) The bacterial strains tested included the clinical strains Escherichia coli expressing NDM-1 (CLB30005, CLB30016), Serratia marcescens expressing IMP-1 (CL5741), and Klebsiella pneumoniae expressing VIM-1 (IHMA599644) Inhibitor activity was measured in the presence and absence of imipenem in a 384-well microplate.
(§3) The clinical strains CLB30016, CL5741 and IHMA599644 were grown on trypticase soy agar containing 5% sheep's blood. The clinical strain CLB30005 was grown on Mueller Hinton broth agar containing 8 ug/ml imipenem. The bacteria on agar plates were incubated at 35° C. with humidity overnight. The following day, individual colonies from each clinical strain were picked and resuspended in 5 ml saline to attain an OD600 of 0.14, 0.11, 0.15 and 0.13, for CLB30005, CLB30016, CL5741 and IHMA599644, respectively. These were further diluted 1:100 into 1.1×CAMHB and used to inoculate the test wells as described below.
(§4) Imipenem in 10 mM 3-(N-morpholino)propanesulfonic acid (MOPS, pH 7) was stored in single use aliquots at −80° C. […] On the day of the assay, 4 μl of antibiotic was added to 45 ul of bacteria followed by 1 μl of test compound and mixed by pipetting and with an orbital shaker. The concentration of antibiotic used in the assay was 4 μg/ml, or optionally 1 μg/ml. Microplates were covered and incubated at 35° C. for 22 hours to 24 hours. At the end of the incubation, absorbance was determined using a spectrophotometer.

[2] = tested on: Klebsiella pneumoniae expressing VIM-1 (IHMA599644); test: as above; assay type: cell-based; conditions: for Klebsiella pneumoniae expressing VIM-1 (IHMA 599644) MITC95: concentration giving 95% inhibition of bacterial growth; for Klebsiella pneumoniae MITC95: 95% growth inhibition
Protocol: as §1, §2, §3, §4

[3] = tested on: Escherichia coli expressing NDM-1 (CLB30016); test: as above; assay type: cell-based; conditions: for Escherichia coli expressing NDM-1 (CLB 30016) MITC95: concentration giving 95% inhibition of bacterial growth; for Escherichia coli MITC95: 95% growth inhibition
Protocol: as §1, §2, §3, §4

VIM-1 = VIM-1 (Pseudomonas aeruginosa (strain ATCC 15692 / DSM 22644 / CIP 104116 / JCM 14847 / LMG 12228 / 1C / PRS 101 / PAO1), UniProt A0A0F7KYQ8); test: Enzyme activity: determination of IC50, fluorescence assay with CCF2-FA substrate (VIM-1); assay type: biochemical
[4] = fluorescence assay with CCF2-FA substrate
[5] = IMP-1 enzyme, CCF2-FA fluorescence assay
[6] = Serratia marcescens expressing IMP-1 (CL5741)
[7] = Klebsiella pneumoniae expressing VIM-1 (IHMA599644)
[8] = Escherichia coli expressing NDM-1 (CLB30016)
[9] = fluorescence assay with CCF2-FA substrate; read-out: VIM-1 IC50

Chain of NDM-1 (C7C422 whole entry, looked up, species assumed): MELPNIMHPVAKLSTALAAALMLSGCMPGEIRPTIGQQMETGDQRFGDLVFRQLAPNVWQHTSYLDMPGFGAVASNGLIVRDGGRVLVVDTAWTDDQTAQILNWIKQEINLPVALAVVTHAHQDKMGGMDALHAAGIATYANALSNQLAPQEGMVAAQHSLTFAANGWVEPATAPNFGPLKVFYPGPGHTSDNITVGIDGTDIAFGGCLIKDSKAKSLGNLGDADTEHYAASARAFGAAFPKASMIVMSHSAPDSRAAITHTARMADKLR
Chain of IMP-1 (P52699 whole entry, looked up): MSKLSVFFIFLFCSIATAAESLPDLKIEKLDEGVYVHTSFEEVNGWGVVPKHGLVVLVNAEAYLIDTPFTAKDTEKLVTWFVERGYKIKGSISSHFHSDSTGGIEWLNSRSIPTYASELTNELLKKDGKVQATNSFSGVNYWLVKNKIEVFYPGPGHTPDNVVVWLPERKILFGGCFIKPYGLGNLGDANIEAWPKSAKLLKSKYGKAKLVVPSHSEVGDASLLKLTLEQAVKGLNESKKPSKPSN

With `NS(=O)(=O)c1cccc(CCc2cccnc2)c1-c1nnn[nH]1` [Example 143, 3-(2-pyridin-3-ylethyl)-2-(1H-tetrazol-5-yl)benzenesulfonamide] the IC50 (NDM-1; [4]) was 20.7 nM, the IC50 (IMP-1; [4]) was 98.5 nM and the “Serratia marcescens expressing IMP-1 (CL5741) MITC95” value [1] was 4.688 µM. The “Klebsiella pneumoniae expressing VIM-1 (IHMA 599644) MITC95” value [2] was 200 µM and the “Escherichia coli expressing NDM-1 (CLB 30016) MITC95” value [3] was 0.7813 µM.
Compound `NS(=O)(=O)c1c(C(F)(F)F)ccc(N2CC3(CCNCC3)C2)c1-c1nnn[nH]1` [Example 782] has an IC50 (VIM-1; read-out: VIM-1 IC50; fluorescence assay with CCF2-FA substrate) of 9.5 nM.
In the case of `NS(=O)(=O)c1c(C(F)(F)F)ccc([C@H]2CC[C@H](NC3CC[C@H]4NCC[C@@H]34)CC2)c1-c1nnn[nH]1` (stereo partly drawn) [Example 692, 3-{4-[(3aR,6aR)-octahydrocyclopenta[b]pyrrol-4-ylamino]cyclohexyl}-2-(1H-tetrazol-5-yl)-6-(trifluoromethyl)benzene sulfonamide], the IC50 (NDM-1; NDM-1 enzyme, CCF2-FA substrate) is reported as 6.36 nM, the IC50 (IMP-1; IMP-1 enzyme, CCF2-FA substrate) is reported as 19.8 nM and the “Serratia marcescens MITC95” value ([1]; Serratia marcescens CL5741 (IMP-1)) is reported as 3.125 µM. The “Klebsiella pneumoniae MITC95” value ([2]; Klebsiella pneumoniae IHMA599644 (VIM-1)) was 6.25 µM and the “Escherichia coli MITC95” value ([3]; (CLB30016, NDM-1)) was 1.563 µM.
`NC1CCC(Cc2ccc(-c3ccc(C4CCNCC4)cc3)c(-c3nn[nH]n3)c2S(N)(=O)=O)CC1` (stereo not drawn) [Example 463, 4-(((1r,4r)-4-aminocyclohexyl)methyl)-4′-(piperidin-4-yl)-2-(2H-tetrazol-5-yl)-[1,1′-biphenyl]-3-sulfonamide] was tested, and the IC50 (IMP-1; [5]) was 6.58 nM, the “Serratia marcescens MITC95” value [1, 6] was 0.1953 µM and the “Klebsiella pneumoniae MITC95” value [2, 7] was 0.7813 µM. For the same compound, the “Escherichia coli MITC95” value [3, 8] was 0.7813 µM.
`NC1CCC(Cc2ccc(-c3ccc(C4CCNCC4)cc3)c(-c3nn[nH]n3)c2S(N)(=O)=O)CC1` (stereo not drawn) [Example 455, 4-(((1s,4s)-4-aminocyclohexyl)methyl)-4′-(piperidin-4-yl)-2-(2H-tetrazol-5-yl)-[1,1′-biphenyl]-3-sulfonamide] was tested, and the IC50 (IMP-1; [5]) was 6.29 nM, the “Serratia marcescens MITC95” value [1, 6] was 0.3906 µM and the “Klebsiella pneumoniae MITC95” value [2, 7] was 1.563 µM. The “Escherichia coli MITC95” value [3, 8] was 0.5859 µM.
`NS(=O)(=O)c1cccc(-c2ccc3ncnn3c2)c1-c1nnn[nH]1` [Example 111, 3-([1,2,4]triazolo[1,5-a]pyridin-6-yl)-2-(1H-tetrazol-5-yl)benzenesulfonamide] was tested, and the “Serratia marcescens expressing IMP-1 (CL5741) MITC95” value [1] was 9.375 µM, the “Klebsiella pneumoniae expressing VIM-1 (IHMA 599644) MITC95” value [2] was 18.75 µM and the “Escherichia coli expressing NDM-1 (CLB 30016) MITC95” value [3] was 1.172 µM.
Work on `NS(=O)(=O)c1cccc(-c2ccc(C(=O)NC3CCOC3)cc2)c1-c1nn[nH]n1` (stereo not drawn) [Example 2, 3′-sulfamoyl-N-(tetrahydrofuran-3-yl)-2′-(2H-tetrazol-5-yl)biphenyl-4-carboxamide] yielded an IC50 (VIM-1; [9]) of 1910 nM, an IC50 (NDM-1; [4]) of 52.3 nM and an IC50 (IMP-1; [4]) of 262 nM.
In the case of `NS(=O)(=O)c1cccc(C2CCN(C(=O)C3(c4ccccc4)CC3)CC2)c1-c1nn[nH]n1` [Example 176, 3-(1-(1-phenylcyclopropanecarbonyl)piperidin-4-yl)-2-(2H-tetrazol-5-yl)benzenesulfonamide], the IC50 (VIM-1; [9]) is reported as 148 nM, the IC50 (NDM-1; [4]) is reported as 6.43 nM and the IC50 (IMP-1; [4]) is reported as 72.8 nM.
For `NS(=O)(=O)c1nccc(N2CCC(CN3CCOCC3)CC2)c1-c1nnn[nH]1` [Example 224, 4-[4-(morpholin-4-ylmethyl)piperidin-1-yl]-3-(1H-tetrazol-5-yl)pyridine-2-sulfonamide], the IC50 (NDM-1; [4]) was 247 nM, the “Serratia marcescens expressing IMP-1 (CL5741) MITC95” value [1] was 18.75 µM and the “Klebsiella pneumoniae expressing VIM-1 (IHMA 599644) MITC95” value [2] was 200 µM. The “Escherichia coli expressing NDM-1 (CLB 30016) MITC95” value [3] was 4.688 µM.
For `Cc1cc(-c2nnn[nH]2)c(S(N)(=O)=O)cc1C` [Example 252, 4,5-Dimethyl-2-(2H-tetrazol-5-yl)benzenesulfonamide], the IC50 (VIM-1; VIM-1 enzyme, CCF2-FA fluorescence assay; read-out: VIM-1 IC50) was 156000 nM, the IC50 (NDM-1; NDM-1 enzyme, CCF2-FA fluorescence assay) was 591 nM and the IC50 (IMP-1; [5]) was 112000 nM.
In the case of `NS(=O)(=O)c1cccc(-c2ccc(CO)cc2)c1-c1nnn[nH]1` [Example 26, 4′-(hydroxymethyl)-2-(1H-tetrazol-5-yl)biphenyl-3-sulfonamide], the IC50 (VIM-1; [9]) is reported as 58.4 nM, the IC50 (NDM-1; [4]) is reported as 2.43 nM and the IC50 (IMP-1; [4]) is reported as 46.2 nM. For the same compound, the “Klebsiella pneumoniae expressing VIM-1 (IHMA 599644) MITC95” value [2] was 50 µM.
